One may read the IC50 as the point on the concentration scale where inhibition reaches its midpoint.

For the first assay, the target named is DOT1L(1-416) (Homo sapiens, UniProt Q8TEK3). As to the kind of experiment: Determination of IC50: DOT1L(1-416) methyltransferase assay, 3H-SAM, oligonucleosome substrate, Flashplate. The assay is classed as biochemical. As to conditions: DOT1L IC50, class symbols. The gist of the method: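 Compounds in 10-point 3-fold DMSO dilutions were tested in reactions started with substrate mix of 200 nM [3H]-SAM, 600 nM unlabeled SAM and 20 nM oligonucleosome. Reactions ran 120 min at room temperature and were quenched with 100 μM SAM. Labeled substrate was captured on streptavidin Flashplates and counted by scintillation to give IC50.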
DOT1L(1-416), sequence (Q8TEK3 1-416): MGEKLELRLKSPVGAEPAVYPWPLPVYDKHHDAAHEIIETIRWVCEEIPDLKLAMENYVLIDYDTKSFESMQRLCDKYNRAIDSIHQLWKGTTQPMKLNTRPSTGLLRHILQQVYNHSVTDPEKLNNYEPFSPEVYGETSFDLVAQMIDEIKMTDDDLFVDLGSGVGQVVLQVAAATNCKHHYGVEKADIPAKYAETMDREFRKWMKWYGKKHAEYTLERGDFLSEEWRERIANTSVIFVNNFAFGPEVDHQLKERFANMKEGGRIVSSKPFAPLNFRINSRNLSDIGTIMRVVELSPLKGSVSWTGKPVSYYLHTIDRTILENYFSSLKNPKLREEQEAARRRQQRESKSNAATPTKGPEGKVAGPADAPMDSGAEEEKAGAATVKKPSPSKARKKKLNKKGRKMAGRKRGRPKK
In turn, `CC(C)[N+]([O-])(CC1O[C@@H](n2cnc3c(N)ncnc32)[C@H](O)[C@@H]1O)[C@H]1C[C@H](CCc2nc3cc(C(C)(C)C)ccc3[nH]2)C1` (stereo partly drawn) [Compound 107, (R,1s,3R)-N-(((2R,35,4R,5R)-5-(6-amino-9H-purin-9-yl)-3,4-dihydroxy-tetrahydrofuran-2-yl)methyl)-3-(2-(5-(tert-butyl)-1H-benzo[d]imidazol-2-yl)ethyl)-N-isopropyl-cyclobutanamine oxide] returned a half-maximal inhibitory concentration (IC50) below 100 nM.

Still in this assay, the particulars now being: class symbols; read-out: DOT1L IC50.
For the compound `CC(C)N(C[C@H]1O[C@@H](n2ccc3c(N)ncnc32)[C@H](O)[C@@H]1O)[C@H]1C[C@H](CCc2nc3cc(C(C)(C)C)ccc3[nH]2)C1` [Compound 75, (2R,3R,4S,5R)-2-(4-amino-7H-pyrrolo[2,3-d]pyrimidin-7-yl)-5-((((1s,3R)-3-(2-(5-(tert-butyl)-1H-benzo[d]imidazol-2-yl)ethyl)cyclobutyl)(isopropyl)amino)methyl)tetrahydrofuran-3,4-diol], the IC50 was below 100 nM.
On the same count and under the same terms, then `CN(C[C@H]1C[C@@H](n2ccc3c(N)ncnc32)[C@H](O)[C@@H]1O)[C@H]1C[C@H](CCc2nc3cc(C4(C)CCC4)ccc3[nH]2)C1` [Compound 39], with below 100 nM; and `CC(C)(C)c1ccc2[nH]c(CCC3CC(N(C[C@H]4O[C@@H](n5cnc6c(N)ncnc65)[C@H](O)[C@@H]4O)CC(F)(F)F)C3)nc2c1` (stereo partly drawn) [Compound 82, (2R,3R,45,5R)-2-(6-amino-9H-purin-9-yl)-5-(((3-(2-(5-(tert-butyl)-1H-benzo[d]imidazol-2-yl)ethyl)cyclobutyl) (2,2,2-trifluoroethyl)amino)methyl)tetrahydrofuran-3,4-diol], with 100 to 1000 nM.
With `CN(C[C@@H]1C[C@@H](O)[C@H](n2ccc3c(N)ncnc32)C1)[C@H]1C[C@H](CCc2nc3cc(Cl)c(C(F)(F)F)cc3[nH]2)C1` [Compound 85, (1R,2R,4S)-2-(4-amino-7H-pyrrolo[2,3-d]pyrimidin-7-yl)-4-((((1s,3S)-3-(2-(5-chloro-6-(trifluoromethyl)-1H-benzo[d]imidazol-2-yl)ethyl)cyclobutyl) (methyl)amino)methyl) cyclopentanol], the IC50 was in the range of 10000 to 50000 nM.
On the same count and under the same terms, under `CC(C)CN(C[C@H]1C[C@@H](n2ccc3c(N)ncnc32)[C@H](O)[C@@H]1O)C1CC(CCc2nc3cc(C(C)(C)C)ccc3[nH]2)C1` (stereo partly drawn) [Compound 45, (1R,2S,3R,5R)-3-(4-amino-7H-pyrrolo[2,3-d]pyrimidin-7-yl)-5-(((3-(2-(5-(tert-butyl)-1H-benzo[d]imidazol-2-yl)ethyl)cyclobutyl)(isobutyl)amino)methyl)cyclopentane-1,2-diol] stands below 100 nM; under `CN(C[C@H]1O[C@@H](n2ccc3c(N)ncnc32)[C@H](O)[C@@H]1O)[C@H]1C[C@H](CCc2nc3cc(C(C)(C)C)ccc3[nH]2)C1` [Compound 92, (2R,3R,4S,5R)-2-(4-amino-7H-pyrrolo[2,3-d]pyrimidin-7-yl)-5-((((1s,3R)-3-(2-(5-(tert-butyl)-1H-benzo[d]imidazol-2-yl)ethyl)cyclobutyl) (methyl)amino)methyl) tetrahydrofuran-3,4-diol], below 100 nM; under `CC(C)N(C[C@H]1O[C@@H](n2cnc3c(N)ncnc32)[C@H](O)[C@@H]1O)C1CC(CCc2nc3cc(C4(C)CC4)ccc3[nH]2)C1` (stereo partly drawn) [Compound 139, (2R,3R,4S,5R)-2-(6-amino-9H-purin-9-yl)-5-((isopropyl(3-(2-(5-(1-methylcyclopropyl)-1H-benzo[d]imidazol-2-yl)ethyl)cyclobutyl)amino)methyl)tetrahydro-furan-3,4-diol], below 100 nM.
On the same count and under the same terms, then `CC(C)N(C[C@H]1C[C@@H](n2ccc3c(N)ncnc32)[C@H](O)[C@@H]1O)C1CC(CCc2nc3cc(C(F)(F)F)c(Cl)cc3[nH]2)C1` (stereo partly drawn) [Compound 20, (1R,2S,3R,5R)-3-(4-amino-7H-pyrrolo[2,3-d]pyrimidin-7-yl)-5-(((3-(2-(6-chloro-5-(trifluoromethyl)-1H-benzo[d]imidazol-2-yl)ethyl)cyclobutyl)(isopropyl)amino)methyl)cyclopentane-1,2-diol], with below 100 nM.
Still for that read-out and setting: under `CC(C)N(C[C@H]1C[C@@H](n2cnc3c(N)ncnc32)[C@H](O)[C@@H]1O)C1CC(CCc2nc3cc(C(C)(C)C)ccc3[nH]2)C1` (stereo partly drawn) [Compound 50, (1R,2S,3R,5R)-3-(6-amino-9H-purin-9-yl)-5-(((3-(2-(5-(tert-butyl)-1H-benzo[d]imidazol-2-yl)ethyl)cyclobutyl)(isopropyl)amino)methyl)cyclopentane-1,2-diol] stands below 100 nM; under `CN(C[C@H]1O[C@@H](n2cnc3c(N)ncnc32)[C@H](O)[C@@H]1O)C1CC(CCc2nc3cc(C4(C)CCC4)ccc3[nH]2)C1` (stereo partly drawn) [Compound 33, (2R,3R,4S,5R)-2-(6-amino-9H-purin-9-yl)-5-((methyl(3-(2-(5-(1-methylcyclobutyl)-1H-benzo[d]imidazol-2-yl)ethyl)cyclobutyl)amino)methyl)tetrahydrofuran-3,4-diol], below 100 nM.
On to `CC(C)N(C[C@H]1O[C@@H](n2cnc3c(N)ncnc32)[C@H](O)[C@@H]1O)C1CC(CCc2nc3cc(C4CCC4)ccc3[nH]2)C1` (stereo partly drawn) [Compound 111, (2R,3R,4S,5R)-2-(6-amino-9H-purin-9-yl)-5-(((3-(2-(5-cyclobutyl-1H-benzo[d]imidazol-2-yl)ethyl)cyclobutyl) (isopropyl)amino)methyl)tetrahydrofuran-3,4-diol], for which the IC50 is below 100 nM.
In the case of `CC(C)N(C[C@H]1O[C@@H](n2cnc3c(N)ncnc32)[C@H](O)[C@@H]1O)[C@H]1C[C@H](CCc2nc3cc(C4CC4)ccc3[nH]2)C1` [Compound 119, (2R,3R,4S,5R)-2-(6-amino-9H-purin-9-yl)-5-((((1s,3R)-3-(2-(5-cyclopropyl-1H-benzo[d]imidazol-2-yl)ethyl)cyclobutyl) (isopropyl)amino)methyl)tetrahydrofuran-3,4-diol], the IC50 was below 100 nM.
In the case of `CC(C)N(C[C@H]1O[C@@H](n2cnc3c(N)ncnc32)[C@H](O)[C@@H]1O)[C@H]1C[C@@H](CCc2nc3cc(C4(C)CCC4)ccc3[nH]2)C1` [Compound 28, (2R,3R,4S,5R)-2-(6-amino-9H-purin-9-yl)-5-((isopropyl((1r,3S)-3-(2-(5-(1-methylcyclobutyl)-1H-benzo[d]imidazol-2-yl)ethyl)cyclobutyl)amino)methyl)tetrahydrofuran-3,4-diol], the half-inhibitory concentration (IC50) was below 100 nM.
Same read-out and setting: under `CN(C[C@H]1C[C@@H](n2ccc3c(N)ncnc32)[C@H](O)[C@@H]1O)[C@H]1C[C@@H](CCc2nc3cc(C(F)(F)F)ccc3[nH]2)C1` [Compound 10, (1R,2S,3R,5R)-3-(4-amino-7H-pyrrolo[2,3-d]pyrimidin-7-yl)-5-((methyl((1r,3S)-3-(2-(5-(trifluoromethyl)-1H-benzo[d]imidazol-2-yl)ethyl)cyclobutyl)amino)methyl)cyclopentane-1,2-diol] stands below 100 nM.
For the compound `CC(C)(C)c1ccc2[nH]c(CC[C@H]3C[C@H](N(CC4CCC4)C[C@H]4C[C@@H](n5ccc6c(N)ncnc65)[C@H](O)[C@@H]4O)C3)nc2c1` [Compound 59, (1R,2S,3R,5R)-3-(4-amino-7H-pyrrolo[2,3-d]pyrimidin-7-yl)-5-((((1s,3R)-3-(2-(5-(tert-butyl)-1H-benzo[d]imidazol-2-yl)ethyl)cyclobutyl)(cyclobutylmethyl)amino)methyl)cyclopentane-1,2-diol], the half-inhibitory concentration (IC50) is below 100 nM.
As for `CC(C)N(C[C@@H]1C[C@@H](O)[C@H](n2ccc3c(N)ncnc32)C1)C1CC(CCc2nc3cc(Cl)c(C(F)(F)F)cc3[nH]2)C1` (stereo partly drawn) [Compound 84, (1R,2R,4S)-2-(4-amino-7H-pyrrolo[2,3-d]pyrimidin-7-yl)-4-(((3-(2-(5-chloro-6-(trifluoromethyl)-1H-benzo[d]imidazol-2-yl)ethyl)cyclobutyl) (isopropyl)amino)methyl)cyclopentanol], the IC50 was in the range of 1000 to 10000 nM.
Consider `CC(C)(C)c1ccc2[nH]c(CC[C@H]3C[C@@H](N(C[C@H]4O[C@@H](n5cnc6c(N)ncnc65)[C@H](O)[C@@H]4O)CC(F)(F)F)C3)nc2c1` [Compound 102, (2R,3R,4S,5R)-2-(6-amino-9H-purin-9-yl)-5-((((1r,3S)-3-(2-(5-(tert-butyl)-1H-benzo[d]imidazol-2-yl)ethyl)cyclobutyl) (2,2,2-trifluoroethyl)amino)methyl)tetrahydrofuran-3,4-diol], for which the IC50 was in the range of 100 to 1000 nM.
Regarding `CC(C)N(C[C@H]1O[C@@H](n2cnc3c(N)ncnc32)[C@H](O)[C@@H]1O)[C@H]1C[C@H](CCc2nc3cc(C(C)(C)C#N)ccc3[nH]2)C1` [Compound 129, 2-(2-(2-((1R,3s)-3-((((2R,3S,4R,5R)-5-(6-amino-9H-purin-9-yl)-3,4-dihydroxytetrahydro-furan-2-yl)methyl)(isopropyl)amino)cyclobutyl)ethyl)-1H-benzo[d]imidazol-5-yl)-2-methylpropanenitrile], the IC50 is below 100 nM.
Same read-out and setting: then `CC(C)N(C[C@H]1O[C@@H](n2cnc3c(N)ncnc32)[C@H](O)[C@@H]1O)[C@H]1C[C@H](CCc2nc3cc(C4(C#N)CC4)ccc3[nH]2)C1` [Compound 136, 1-(2-(2-((1R,3s)-3-((((2R,3S,4R,5R)-5-(6-amino-9H-purin-9-yl)-3,4-dihydroxytetrahydro-furan-2-yl)methyl)(isopropyl)amino)cyclobutyl)ethyl)-1H-benzo[d]imidazol-5-yl)cyclo-propanecarbonitrile], with below 100 nM; and `CC(C)N(C[C@@H]1C[C@@H](O)[C@H](n2ccc3c(N)ncnc32)C1)[C@H]1C[C@@H](CCc2nc3cc(Cl)c(C(F)(F)F)cc3[nH]2)C1` [Compound 105, (1R,2R,4S)-2-(4-amino-7H-pyrrolo[2,3-d]pyrimidin-7-yl)-4-((((1r,3R)-3-(2-(5-chloro-6-(trifluoromethyl)-1H-benzo[d]imidazol-2-yl)ethyl)cyclobutyl) (isopropyl)amino)methyl)cyclopentanol], with 1000 to 10000 nM.

The assay is the same for the next values; noted with them: read-out: DOT1L IC50.
Consider `CC(C)N(C[C@H]1O[C@@H](n2ccc3c(N)ncnc32)[C@H](O)[C@@H]1O)[C@H]1C[C@H](CCc2nc3cc(C(C)(C)C)ccc3[nH]2)C1` [Compound 75, (2R,3R,4S,5R)-2-(4-amino-7H-pyrrolo[2,3-d]pyrimidin-7-yl)-5-((((1s,3R)-3-(2-(5-(tert-butyl)-1H-benzo[d]imidazol-2-yl)ethyl)cyclobutyl)(isopropyl)amino)methyl)tetrahydrofuran-3,4-diol], for which the IC50 came to 0.59 nM.

The values are drawn from patent US8580762B2, “Substituted purine and 7-deazapurine compounds” (Epizyme, Inc., priority 2010, dated 2013).
